Where two headings read alike, the source gives them in different places. Where no end group is shown, it is not given here.
Columns and labels:
[1] = test system: BAE cells; test: Scratch wound repair of BAE cells; type: cell-based, bovine; conditions: cells arrested using 5-fluorouracil; 24 h
Description: BAE cells were seeded at a density of 2×10^5 cells/well of 6 well tissue culture plates in complete growth medium supplemented with 10% FBS. After the cells formed a confluent cobblestone, cells were arrested using 10 μg/ml 5-fluorouracil for 48 h. Scrape wounds of 2 mm, width were made in the wells, and the cells were further incubated with medium containing 10% FBS, 10 μg/ml 5 fluorouracil and peptides 678, 709, or 690. Measurements of the distance between the wound margins were taken at 0 and 24 h, and the net migration is expressed as mean±SEM for triplicates.
The in vitro wound healing assay used was a slight modification of that described by Joyce et al. (Joyce et al., 1989). A confluent monolayer of BAE cells pretreated with 10 μg/ml 5-fluorouracil for […] were used in this assay. […] Mitosis of the BAE cells in the monolayers was inhibited by addition of 5-fluorouracil, so that the rate of wound closure was due solely to the migration of cells into the wound sites. The distances between the wound margins were measured as soon as the wound was made and 24 hours later using a grid incorporated into the eye piece of the microscope. All data represent the results obtained from three independent scratch wounds for each peptide tested.

[2] = test system: chick chorioallantoic membrane (CAM) angiogenesis; test: Chick chorioallantoic membrane (CAM) angiogenesis assay; type: in vivo, chicken; conditions: for Angiogenic response (% inhibition): relative to control gels, mean ± SD; for activity in the CAM assay: in vivo
Description: Fertilized Leghorn chicken eggs were obtained from Ramona Duck farm (Westminster, Calif.). At day 3 of development, the embryos were placed on 100 mm petri dishes. Assays were performed as previously described (Iruela-Arispe et al., 1999). […] Peptides were filtered on Centricon P100 prior to their analysis on the CAM assays to eliminate traces of endotoxin. Pellets were applied to the outer ⅓ of the CAM, and the assay was performed for 24 h. Detection of capillary growth was done by injection of FITC-dextran in the bloodstream and observation of the pellets under a fluorescent inverted microscope. Positive controls (growth factors and vehicle), as well as negative controls (vehicle alone) were placed in the same CAM and used as reference of 100% stimulation or baseline inhibition (0%), and response to the peptides was determined according to these internal controls. Assays were performed in duplicate in each CAM and in four independent CAMs (total of 8 pellets).

[3] = test system: BAE cells; conditions: added in solution
Description: (§5) Briefly, 100 μl of a 5×10^4 cell/ml suspension of BAE cells were seeded in triplicate into 96 well tissue culture plate in DMEM medium containing 1% FCS, 10 ng/ml of FGF2 and peptides at 1-40 μM concentrations. Cells were incubated for 72 h, and proliferation was measured using the Celltiter tetrazolium assay (Promega). […] Proliferation was determined at 72 h, and is presented as a percent of the control, mean±S.D., n=3 for experimental points and n=6 for control. […] FIG. 19E: HDME cell proliferation in MCDB growth medium with 5% FCS was determined in the presence of 10 ng/ml FGF2 and the indicated concentrations of TSP1 added in the medium (Δ) or immobilized on the substrate (●) or in wells coated with the indicated concentrations of peptide 678 (●).
(§6) Cell proliferation was measured using the Cell-Titer colorimetric assay (Promega) as previously described (Vogel et al., 1993). A 100 μl volume of BAE cell suspension at 50,000 cells/ml in DMEM containing 1% FBS and supplemented with 10 ng/ml FGF2 was plated in triplicate in 96 well tissue culture plates either in the presence of peptides in solution or in wells that were pre-coated with 100 μl of the peptides at 40° C. overnight and aspirated just before adding cells. Cells were grown for 72 hours at 37° C. in a humidified incubator with 5% CO2. […] HDME cell proliferation was measured in MCDB growth medium without heparin, VEGF, or FGF2.

[4] = test system: MDA-MB-435 breast carcinoma cells; test: Inhibition of MDA-MB-435 cell adhesion to immobilized peptide 678 (microscopic adhesion assay); type: cell-based, human
Description: (§1) Adhesion assays of cells other than small cell lung carcinoma (SCLC)-Adhesion was measured on polystyrene or glass substrates coated with peptides or proteins as previously described (Guo et al., 1992). Peptides dissolved in PBS at 0.4 to 50 μM were incubated in polystyrene microliter plate wells overnight at 4° C. The wells were washed 3 times with distilled water. Adsorbed peptide was quantified using the BCA assay (Pierce Chemical) measuring absorbance at 570 and 630 nm as described by the supplier's protocol. The assay for adsorption was calibrated using purified peptide in solution as a standard. After blocking with 1% BSA in Dulbecco's PBS, adhesion assays were performed by adding cells suspended in DMEM (BAE cells) or medium 199 (human cells) containing 1 mg/ml BSA. Cell attachment and spreading was quantified microscopically.

[5] = test system: OH1 SCLC cells; type: cell-based, human; conditions: soluble
Description: Net, proliferation was determined by the CellTiter assay (Promega) and is presented as mean±SD, n=3. […] The cells were fixed and photographed using Nomarski optics. Bar=100 μm. […] Panel E: α3β1 Integrin ligands cooperate with EGF to inhibit OH1 cell proliferation. […] Net proliferation is presented as a percent of the -EGF control (mean±SD, n=3 for treated groups and n=6 for control groups).
Proteins and peptides were immobilized on Nunc Maxisorp 96 well plates by overnight incubation with the proteins or peptides dissolved in 50 μl of sterile Dulbecco's PBS. The supernatant fluid was removed, and the wells were incubated for 30 min. in DPBS containing 1% BSA. OH1 cells (1×10^4/well) were added in RPMI containing 15% FCS and incubated for 72 h at 37° in 5% CO2. For assessing inhibition by soluble proteins or peptides, OH1 cells were grown in suspension in Nunclon 96 well tissue culture plates using the same medium.

[6] = test system: HDME cells; test: HDME cell proliferation; type: cell-based, human
Description: as §5, §6

[7] = test system: N417 SCLC cells; test: SCLC cell adhesion to extracellular matrix proteins, N417; type: cell-based, human
Description: (§2) For adhesion assays of SCLC, these cells were washed once with RPMI 1640 and centrifuged at 400×g for 3 min. The pellet was suspended in 2.5 mM EDTA in PBS, pH 7.4 and incubated for 10 min at 37° C. After trituration three times and centrifugation, the cells were resuspended in RPMI 1640 containing 0.1% BSA (Sigma Co. St Louis, Mo.).
(§3) Adhesion of SCLC cells to extracellular matrix proteins. Extracellular matrix proteins or peptides in Dulbecco's PBS were adsorbed onto polystyrene by incubating overnight at 4° C. […] The supernatant fluid was removed, and the dishes were incubated with Tris-gelatin (ICN) (50 mM Tris-HCl, 110 mM NaCl, 5 mM CaCl2, 0.1 mM phenylmethylsulfonyl fluoride, 0.2% gelatin and 0.02% NaN3, pH 7.8) or Dulbeccos PBS with 1% BSA, as indicated, for 30 min to minimize nonspecific adhesion. The disks were washed twice with cold PBS, pH 7.2 and overlayed with dissociated SCLC cells prepared as described above at a density of 2.5×10^5/cm^2.
(§4) For inhibition studies with SCLC cells, inhibitors or antibodies were added and incubated with SCLC cells at the indicated concentrations. After incubation for 60-90 min at 37° C., the disks were washed by dipping six times in PBS, pH 7.2, fixed with 1% glutaraldehyde in PBS, pH 7.2, and stained with Diff-Quik. Attached cells were counted microscopically.

[8] = test system: BAE cells
Description: Direct adhesion of BAE cells to the adsorbed peptides or uncoated substrate (control) are presented as mean±SD, n=3. […] Two flasks of BAE cells were grown to confluence. One flask was harvested and replated in fresh medium at 25% confluency. Fresh medium was added at the same time to the second flask. After 16 h, cells from both flasks were dissociated using EDTA and adhesion was measured on substrates coated with 40 μg/ml TSP1, 10 μg/ml vitronectin, 20 μg/ml plasma fibronectin, or 5 μg/ml type I collagen. The percent spread cells after 60 min is presented as mean±SD, n=3 for a representative experiment.

[9] = test system: HDME cells; test: HDME cell spreading on coated substrates; type: cell-based, human
Description: Spreading was determined microscopically for cells with no additions, in the presence of 10 μM peptide 678, or in the presence of 30 μM of the control peptide 690. Results are presented as mean±SD, n=3. […] The percent spread cells was determined at 60 min.
as §1

[10] = test system: HUVEC; test: HUVEC spreading on coated substrates; type: cell-based, human; conditions: data not shown
Description: FIGS. 14A, 14B and 14C display α3β1 and αvβ3 integrin-mediated spreading of endothelial cells on thrombospondin-1. […] Results are expressed as percent of the response for untreated cells, mean±S.D., n=3.
as §1

[11] = test system: H69 SCLC cells; test: SCLC cell adhesion to extracellular matrix proteins, H69; type: cell-based, human
Description: as §2, §3, §4

[12] = test system: H345 SCLC cells; test: SCLC cell adhesion to extracellular matrix proteins, H345; type: cell-based, human
Description: as §2, §3, §4

[13] = test system: MDA-MB-435 cells; test: MDA-MB-435 cell chemotaxis in modified Boyden chambers; type: cell-based, human
Description: FIGS. 10A and 10B display the measurement of MDA-MB-435 cell chemotaxis. Panel A: Dose-dependence for stimulation of MDA-MB-435 cell motility by peptide 678 added to the lower well of a modified Boyden chamber. Cells migrated to the lower surface of an 8 μm pore polycarbonate filter were quantified microscopically after 7 h, mean±SD, n=3 for a representative experiment. […] Chemotaxis of untreated cells (striped bars) or cells treated with 10 nM IGF1 in the upper chamber (solid bars) was determined after 7 h and is presented as mean±S.D., n=3.

[14] = Table 3, 5 μM peptide 678, read-out: IC50 (μM), inhibition of MDA-MB-435 cell adhesion to immobilized peptide 678
[15] = microscopic adhesion assay, polystyrene coated with 5 μM peptide 678, peptides in solution, read-out: Inhibition of peptide 678 (IC50)
[16] = cells harvested from a confluent monolayer

Substance: ri-FQGVLQNVRFVF [Peptide 709]
- inhibition of BAE cell migration into the wound [1]: dose-dependent inhibitor
- Angiogenic response (% inhibition) ([2]; 5 μM peptide): 5 ± 4%
- Angiogenic response (% inhibition) ([2]; 10 μM peptide): 25 ± 13%
- Angiogenic response (% inhibition) ([2]; 20 μM peptide): 39 ± 13%
- activity in the CAM assay [2]: enhanced activity

Substance: FQGVLQAVRFVF [Peptide 686]
- inhibition of BAE cell proliferation [3]: inactive
- Angiogenic response (% inhibition) ([2]; 5 μM peptide): 3 ± 4%
- Angiogenic response (% inhibition) ([2]; 10 μM peptide): 4 ± 6%
- Angiogenic response (% inhibition) ([2]; 20 μM peptide): 15 ± 7%
- activity in the CAM assay [2]: reduced activity
- IC50 [4, 14]: > 300 µM
- IC50 [4, 15]: > 300 µM
- inhibition of OH1 cell proliferation [5]: inactive

Substance: TSP1: calcium replete thrombospondin-1 purified from human platelets
- HDME cell proliferation after plating on immobilized substance [6]: enhancement
- SCLC cell adhesion ([7]; 6.2 μg/ml): 15 ± 2 cells/mm2
- SCLC cell adhesion ([7]; 12.5 μg/ml): 30 ± 4 cells/mm2
- SCLC cell adhesion ([7]; 25 μg/ml): 48 ± 4 cells/mm2
- SCLC cell adhesion ([7]; 50 μg/ml): 55 ± 10 cells/mm2
- percent spread BAE cells on substrate [8, 16]: less than 10%
- percent spread HDME cells on immobilized substrate ([9]; cells from sparse culture): 29%
- percent spread HDME cells on immobilized substrate [9, 16]: 6%
- percent spread HUVEC on immobilized substrate ([10]; confluent cells): 41±5%
- percent spread HUVEC on immobilized substrate ([10]; sparse cultures): 46±7%
- SCLC cell adhesion ([11]; 12.5 μg/ml): 46 ± 8 cells/mm2
- SCLC cell adhesion ([11]; 25 μg/ml): 94 ± 6 cells/mm2
- SCLC cell adhesion ([11]; 50 μg/ml): 110 ± 14 cells/mm2
- SCLC cell adhesion ([11]; substrate coated at 6.2 μg/ml, mean ± S.D., n = 3): 6 ± 1 cells/mm2
- SCLC cell adhesion ([12]; 6.2 μg/ml): 1 ± 1 cells/mm2
- SCLC cell adhesion ([12]; 12.5 μg/ml): 7 ± 1 cells/mm2
- SCLC cell adhesion ([12]; 25 μg/ml): 124 ± 17 cells/mm2
- SCLC cell adhesion ([12]; 50 μg/ml): 165 ± 6 cells/mm2

Substance: FQGVLQNVAFVF [Peptide 690]
- inhibition of BAE cell migration into the wound [1]: did not inhibit
- inhibition of density-dependent BAE spreading on intact TSP1 and the TSP1 peptide ([8]; peptide added in solution): not significantly inhibited
- endothelial cell attachment on immobilized peptide ([8]; peptides adsorbed at 10 μM (FIG. 11A)): not
- Angiogenic response (% inhibition) ([2]; 5 μM peptide): 3 ± 3%
- Angiogenic response (% inhibition) ([2]; 10 μM peptide): 5 ± 3%
- Angiogenic response (% inhibition) ([2]; 20 μM peptide): 2 ± 5%
- activity in the CAM assay [2]: inactive
- stimulation of chemotaxis [13]: inactive
- IC50 [4, 14]: > 300 µM
- IC50 [4, 15]: > 300 µM

From patent US8114406B2, “Peptides and their utility in modulation of behavior of cells expressing α3β1 integrins” (The United States of America as represented by the …, priority 1999, dated 2012)
